Marks after values point to notes of the source that are not given here.
Experiments:
male ICR mice [1] = test: Motor activity in mice not pretreated with reserpine (open-field test); assay type: in vivo, mouse; conditions: 50 mg/kg p.o.
Experimental: We used male ICR mice six to seven weeks old (25 - 30 g) provided by the bioterium of the Departamento de Farmacia, Facultad de Ciencias, at Universidad Nacional de Colombia. The animals were kept under standard laboratory conditions, 12-hour light-dark cycles, and at room temperature (22 ± 1°C) with food and water available ad libitum.
The open field was a square arena divided into 16 squares with surrounding walls to prevent escape. Animals were placed individually in the middle of the open field and the specific parameter evaluated was the number of cadres traversed during 5 minutes. The open field was cleaned with a water-alcohol (10%) solution before placing the next animal to eliminate possible bias due to odors left by previous subjects.

male ICR mice [2] = test: Reserpine model, reversal of hypokinesia (open-field test); assay type: in vivo, mouse; conditions: reserpine 3 mg/kg i.p., 100 mg/kg p.o.
Experimental: (§2) In the reserpine model and l-dopa/carbidopa assays, the locomotor activity was evaluated in the open-field test. The open field was a square arena divided into 16 squares with surrounding walls to prevent escape. Animals were placed individually in the middle of the open field and the specific parameter evaluated was the number of cadres traversed during 5 minutes. The open field was cleaned with a water-alcohol (10%) solution before placing the next animal to eliminate possible bias due to odors left by previous subjects.
The vehicle was a mixture of 15% propylene glycol, 15% glycerol, and enough distilled water to make up 100%. Locomotor activity was evaluated at 2 and 24 h after reserpine administration.

recombinant hMAO-B = biological target: T1, recombinant hMAO-B (Homo sapiens, UniProt P27338); test: hMAO-B inhibitory activity (Amplex Red MAO kit)
T1 sequence (P27338 1-520): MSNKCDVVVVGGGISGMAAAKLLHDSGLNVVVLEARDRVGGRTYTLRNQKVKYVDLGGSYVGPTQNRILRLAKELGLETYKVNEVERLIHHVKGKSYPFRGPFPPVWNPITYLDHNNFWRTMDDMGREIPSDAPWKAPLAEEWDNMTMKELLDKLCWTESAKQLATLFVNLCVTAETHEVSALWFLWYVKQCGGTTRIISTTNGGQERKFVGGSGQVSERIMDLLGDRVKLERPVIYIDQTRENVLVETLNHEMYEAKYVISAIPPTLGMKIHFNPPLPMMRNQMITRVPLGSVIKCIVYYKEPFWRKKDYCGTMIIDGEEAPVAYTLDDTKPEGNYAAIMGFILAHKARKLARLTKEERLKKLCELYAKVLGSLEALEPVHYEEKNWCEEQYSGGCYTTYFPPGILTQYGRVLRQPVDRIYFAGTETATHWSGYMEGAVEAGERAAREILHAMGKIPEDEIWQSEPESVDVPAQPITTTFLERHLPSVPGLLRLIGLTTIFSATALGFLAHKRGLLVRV
Experimental: (§3) In the control experiments, the test drugs were replaced with dilutions of the vehicles. In addition, the specific fluorescence emission was calculated after subtraction of the background activity, which was determined from wells containing all components except the hMAO isoforms that were replaced by a sodium phosphate buffer solution.

male ICR mice [3] = test: Haloperidol-induced catalepsy, horizontal bar test; assay type: in vivo, mouse; conditions: FCS005 100 mg/kg p.o.
Experimental: Haloperidol was administered to the animals to induce rigidity and akinesia (catalepsy) [25]^,[26]. Catalepsy was defined as the prolonged maintenance of both forepaws in an atypical position on a horizontal bar.
The animals received haloperidol (3 mg/kg) i.p.; FCS005 (100 mg/kg, p.o.), levodopa:carbidopa (400 mg/kg:40 mg/kg; p.o.) or vehicle (p.o) was administrated 30 min before. The reversal of catalepsy was evaluated for 2 min 60 min after the administration of the treatments.

[4] = test system: brain homogenates of mice; test: Ex vivo protein carbonyl groups in brain homogenates of haloperidol-treated mice; set-up: species or system mouse; conditions: 10 days, FCS005 50 mg/kg p.o., levodopa:carbidopa 400:40 mg/kg p.o., haloperidol 1 mg/kg i.p., compared to control animals
Experimental: (§1) Antioxidant activity was evaluated ex vivo. Mice were administered daily for 10 days with the treatments FCS005 (50 mg/kg, p.o.), levodopa:carbidopa (400 mg/kg:40 mg/kg, p.o.) or vehicle (p.o.) followed by haloperidol (1 mg/kg, i.p.) 30 min later. Then, the animals were killed by decapitation and the brains were removed, washed in 1% KCl, dissected on an ice-cold plate, and homogenized in 50 mM Tris-HCl buffer (pH 7.4). Homogenates were centrifuged (10,000 rpm for 10 min at 4°C). The final supernatant was stored at -20°C. The protein content of each sample was determined by the Bradford method.
Quantification of protein carbonyl groups was determined by the technique of Levine, et al.[28], following the protocol described by Baltacioglu, et al.[29]. Briefly, 250 µL of 10 mM 2,4-dinitrophenylhydrazine (DNPH) or 250 µL of 2 M HCl were added to the brain homogenate (50 µL) for the sample or the blank, respectively. The samples were left at room temperature in the dark for 1 h and vigorously stirred every 15 min. Then, 500 µL of trichloroacetic acid (20%) was added. The samples were kept in an ice bath for 15 min and then centrifuged at 11,000 rpm for 5 min. […] The absorbance was determined at 360 nm. The content of carbonyl groups was calculated based on the molar extinction coefficient of DNPH (ε = 22 000 cm-1M-1) and expressed as nmol/mg protein [29].

[5] = test system: brain homogenates of mice; test: Ex vivo lipid peroxidation (TBARS) in brain homogenates of haloperidol-treated mice; set-up: species or system mouse; conditions: 10 days, FCS005 50 mg/kg p.o., levodopa:carbidopa 400:40 mg/kg p.o., haloperidol 1 mg/kg i.p., compared to control animals
Experimental: as §1
The index of lipid peroxidation was evaluated following the protocol described by Hijova, et al.[27]. The brain homogenate (450 µL), 1 mL trichloroacetic acid (10%), and 50 µL of 50 mM phosphate buffer (pH 7.4) were centrifuged at 1850 xg for 10 min at 4°C; then, 1 mL of thiobarbituric acid (0.67%) was added to 1 mL of the supernatant. This mixture was heated to 92°C for 30 min and then cooled in an ice bath (4°C) before the absorbance was measured at 532 nm. The results were expressed as thiobarbituric acid reactive substances (TBARS) in mmol/mL/mg of tissue protein.

recombinant hMAO-A = biological target: T2, recombinant hMAO-A (Homo sapiens, UniProt P21397); test: hMAO-A inhibitory activity (Amplex Red MAO kit)
T2 sequence (P21397 1-527): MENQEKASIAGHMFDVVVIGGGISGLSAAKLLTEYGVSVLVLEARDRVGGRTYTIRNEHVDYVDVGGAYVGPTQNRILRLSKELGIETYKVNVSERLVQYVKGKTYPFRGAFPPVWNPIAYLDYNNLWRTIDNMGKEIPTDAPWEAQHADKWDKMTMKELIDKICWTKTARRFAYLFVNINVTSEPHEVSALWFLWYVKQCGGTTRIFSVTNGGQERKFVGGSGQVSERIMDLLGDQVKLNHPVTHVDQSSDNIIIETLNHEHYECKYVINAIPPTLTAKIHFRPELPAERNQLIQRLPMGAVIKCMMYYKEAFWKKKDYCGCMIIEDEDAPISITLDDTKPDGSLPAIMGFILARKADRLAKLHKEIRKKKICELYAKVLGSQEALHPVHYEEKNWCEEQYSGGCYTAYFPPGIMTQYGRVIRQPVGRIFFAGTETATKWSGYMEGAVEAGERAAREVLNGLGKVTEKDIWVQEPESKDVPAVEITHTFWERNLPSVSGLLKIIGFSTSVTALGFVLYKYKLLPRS
Experimental: as §3

male ICR mice [6] = test: L-dopa/carbidopa plus MAO-B inhibitors in mice pretreated with reserpine (open-field test); assay type: in vivo, mouse; conditions: reserpine 3 mg/kg i.p., FCS005 100 mg/kg p.o. plus L-dopa:carbidopa 100:10 mg/kg i.p.
Experimental: as §2
Levodopa plus carbidopa were administrated i.p. 30 min later. Locomotor activity was evaluated at 2 and 24 h after the administration of reserpine.

[7] = test system: MAO activities in rat brain mitochondria; set-up: method as in PMID 11169165; conditions: in vitro; cited from earlier work

SMILES | Locomotor activity (number of cadres traversed in 5 min) (male ICR mice [1]; at 2 hours, p: 0.023 vs control) | Locomotor activity (number of cadres traversed in 5 min) (male ICR mice [1]; at 24 hours, p: 0.003 vs control) | Reversal of hypokinesia produced by reserpine (number of cadres traversed) (male ICR mice [2]; 2 h after reserpine, p: 0.007 vs control) | Reversal of hypokinesia produced by reserpine (number of cadres traversed) (male ICR mice [2]; 24 h after reserpine, p: 0.002 vs control) | IC50 (recombinant hMAO-B) [µM] | Selectivity of MAO inhibition (recombinant hMAO-B; MAO-B vs MAO-A) | Selectivity index [IC50 (hMAO-A)]/[IC50 (hMAO-B)] (recombinant hMAO-B; hMAO-B selectivity ratio, for FCS005 hMAO-A IC50 assumed to be 100 µM (highest concentration tested)) | Total catalepsy time (male ICR mice [3]; haloperidol 3 mg/kg i.p., levodopa:carbidopa 400:40 mg/kg p.o., at 60 min, p: 0.001) | Cataleptic effects of the treatment itself (male ICR mice [3]; horizontal bar test) | Protein carbonyl groups [4] | Lipid peroxidation levels (TBARS) [5] | IC50 (recombinant hMAO-A) [µM] | Inhibition of MAO-A isoform activity (recombinant hMAO-A; at the highest concentration tested (100 µM)) | Number of cadres traversed (male ICR mice [6]; 2 h after reserpine, p: 0.038 vs control) | Number of cadres traversed (male ICR mice [6]; 24 h after reserpine, p: 0.018 vs control) | Inhibitory actions on MAO activities, isoform preference [7]
Cc1coc2cc3oc(=O)ccc3cc12 [FCS005, 3-methyl-7H-furo[3,2-g]chromen-7-one] | significant decrease in the locomotor activity | significant decrease in the locomotor activity | reversal of hypokinesia | reversal of hypokinesia | 41.6 ± 2.79 | selective inhibitory activity towards MAO-B | > 2.4^c | significant decrease in the total catalepsy time | did not show any cataleptic effects | lower | lower | > 100 | did not inhibit MAO-A isoform activity | increased the number of cadres traversed | increased the number of cadres traversed | –
O=c1ccc2cc3ccoc3cc2o1 [Psoralen] | – | – | – | – | – | – | – | – | – | – | – | – | – | – | – | preferentially inhibiting MAO-A activity over MAO-B activity

Source: paper PMC7357371, “Coumarin analogue 3-methyl-7H-furo[3,2-g]chromen-7-one as a possible antiparkinsonian agent” (Biomédica, 2019)
